The results in this text go back to patent US20150105252A1, “SUBSTITUTED PYRAZOLES AS HERBICIDES” (E I DU PONT DE NEMOURS AND COMPANY, priority 2013, published 2015).

Holding throughout (experiment): Test F preemergence
One assay concerns kochia. Format: in vivo, Kochia scoparia. The text has this: Seeds of plant species selected from corn (Zea mays), soybean (Glycine max), velvetleaf (Abutilon theophrasti), lambsquarters (Chenopodium album), wild poinsettia (Euphorbia heterophylla), pigweed, palmer (palmer pigweed, Amaranthus palmeri), common waterhemp (Amaranthus rudis), surinam grass (Brachiaria decumbens), large crabgrass (Digitaria sanguinalis), crabgrass, Brazil (Brazilian crabgrass, Digitaria horizontalis), fall panicum (Panicum dichotomiflorum), giant foxtail (Setaria faberii), green foxtail (Setaria viridis), goosegrass (Eleusine indica), johnsongrass (Sorghum halepense), common ragweed (Ambrosia elation), barnyardgrass (Echinochloa crus-galli), southern sandbur (Cenchrus echinatus), arrowleaf sida (Sida rhombifolia), Italian ryegrass (Lolium multiflorum), dayflower, VA (Virginia (VA) dayflower, Commelina virginica), field bindweed (Convolvulus arvensis), cocklebur (common cocklebur, Xanthium strumarium), morningglory (Ipomoea coccinea), nightshade (eastern black nightshade, Solanum ptycanthum), kochia (Kochia scoparia), yellow nutsedge (Cyperus esculentus), and hairy beggarticks (Bidens pilosa), were planted into a silt loam soil and treated preemergence with test chemicals formulated in a non-phytotoxic solvent mixture which included a surfactant.
At the same time, plants from these crop and weed species and also horseweed (Canada horseweed, Conyza canadensis), smartweed (ladysthumb smartweed, Polygonum persicaria), waterhemp_RES1, (ALS & Triazine resistant common waterhemp, Amaranthus rudis), and waterhemp_RES2, (ALS & HPPD resistant common waterhemp, Amaranthus rudis) were treated with postemergence applications of test chemicals formulated in the same manner. Plants ranged in height from 2 to 18 cm for postemergence treatments (1- to 4-leaf stage). Treated plants and controls were maintained in a greenhouse for 14 to 21 days, after which time all species were compared to controls and visually evaluated. Plant response ratings, summarized in Table F, are based on a scale of 0 to 100 where 0 is no effect and 100 is complete control. A dash (-) response means no test result.

Another assay has as its system arrowleaf sida. Type of assay: in vivo, Sida rhombifolia. The procedure, abridged:
(§1)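 Planting in silt loam, then preemergence treatment; postemergence treatment in parallel on 1- to 4-leaf seedlings (2–18 cm). Compound carried in a non-phytotoxic solvent mixture with surfactant. Greenhouse, 14–21 days; visual comparison with controls, scored 0 (none) to 100 (full control).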

The next assay relates to soybean. Format: in vivo, Glycine max. The procedure, abridged:
as §1

[1] abbreviates: Preemergence, 62 g ai/ha, scale 0 to 100.
Setting [2] is: Preemergence, 125 g ai/ha, scale 0 to 100.
Where [3] appears, read: Preemergence, 250 g ai/ha, scale 0 to 100.
Where [4] appears, read: preemergence, 16 g ai/ha, scale 0 to 100, 100 is complete control.
Setting [5] is: Preemergence, 16 g ai/ha, scale 0 to 100.

With `CCCc1cc(C(=O)NC(C)C)nn1Cc1cc(C(F)(F)F)nn1C` [Compound 201], the “Plant response rating, Kochia” value turned out to be 90 with kochia (setting [1]), 100 with kochia (setting [2]), 100 with kochia (setting [3]) and 0 in the assay with kochia (setting [4]). Also, the “Plant response rating, Arrowleaf Sida” value in the assay with arrowleaf sida (setting [5]) came to 0; in the assay on arrowleaf sida (setting [1]), 0; in the assay with arrowleaf sida (setting [2]) it was 0; in the assay with arrowleaf sida (setting [3]), 75; in the assay with arrowleaf sida (setting [4]), 0. Moreover, the “Plant response rating, Soybean” value in the assay on soybean (setting [5]) amounted to 0; in the assay on soybean (setting [2]) it was 40; with soybean (setting [3]), 40; in the assay with soybean (setting [4]), 0.
